Experiments:
Type in all cases: in vivo, humans
[1] = Effect of food study: plasma pharmacokinetics fasted vs high-fat breakfast; conditions: for Plasma Concentration: 100 mg eplerenone capsule
Method: An open-label randomized, cross-over study was employed to evaluate the pharmacokinetic profiles of eplerenone under fasted and fed conditions, and the safety and tolerability of eplerenone. Safety was assessed based on adverse events, vital signs and clinical laboratory tests. Twelve healthy male subjects were randomized to receive a single 100 mg dose of eplerenone on days 1 and 8 under (i) fasted conditions, or (ii) immediately following a high-fat breakfast. The subjects were orally administered (dosed) a single 100 mg dose of eplerenone in the form of the capsule described in Example 7, together with approximately 200 to 240 mL of water at 0800 hours on days 1 and 8. Subjects randomized to receive a high-fat breakfast were to completely ingest the meal within 20 minutes prior to dosing. The high-fat meal contained approximately 33 g protein, 75 g fat, 58 g carbohydrates and 1000 calories. […] All adverse events were mild in severity.

[2] = ADME study of [14C]eplerenone oral solution: plasma, whole blood, saliva pharmacokinetics; conditions: for Plasma Concentration: 100 mg oral solution of [14C]eplerenone
Method: (§1) An open-label, single dose study was employed to evaluate the absorption, distribution, metabolism and elimination profile of a single 100 mg dose of an oral solution of eplerenone.
(§2) The study employed eight healthy male humans. Each subject received a single 100 mg oral dose of a solution of [^14C]eplerenone (specific activity 0.75 μCi/mg). Plasma, saliva, breath, urine and fecal samples were collected at predetermined intervals and analyzed for sample radioactivity and the concentration of eplerenone and its open lactone ring form. Safety was determined on the basis of laboratory tests, vital signs, and the occurrence and types of adverse events.
(§3) The subjects, who underwent an overnight food fast prior to administration of the dose, received at 0800 hours a single 100 mg oral dose of an aqueous oral solution of radiolabeled eplerenone reconstituted in 80 mL of an apple juice/hydroxypropyl-β-cyclodextrin mixture. The subjects swallowed about 200 mL of water one, two and three hours post dosing.
(§4) Blood samples were collected at −0.5 (predose), 0.5, 1, 1.5, 2, 2.5, 3, 4, 6, 8, 12, 16, 24, 36, 48, 72 and 96 hours post dose. […] Individual fecal samples were collected beginning immediately after dosing and continuing through 0800 hours on day 8. In addition, one predose fecal sample was provided. Saliva samples were taken at 0.5 hour predose and at 0.5, 1, 2, 4, 6, 12, and 24 hours postdose. Breath samples were taken at 0.5 hour predose and at 1, 2, 3, 4, 6, 8, 12, 24, 36, 48 and 72 hours postdose.

[3] = ADME study of [14C]eplerenone oral solution: excretion in urine, feces, breath; conditions: 100 mg [14C]eplerenone oral solution, mean
Method: as §1, §2, §3, §4

[4] = plasma, 100 mg eplerenone oral solution, single dose

- effect of high-fat meal on AUC0-96 ([1]; 100 mg capsule, fed vs fasted): minimal or no measurable effect
- effect of high-fat meal on Cmax ([1]; 100 mg capsule, fed vs fasted): reduction
- effect of high-fat meal on Tmax ([1]; 100 mg capsule, fed vs fasted): increase
- effect of high-fat meal on T½ ([1]; 100 mg capsule, fed vs fasted): minimal or no measurable effect
- Plasma Concentration ([1]; Fasted Conditions, 0.5 hours after dosing): 69.163 ng/mL
- Plasma Concentration ([1]; Fasted Conditions, 1.0 hours after dosing): 91.208 ng/mL
- Plasma Concentration ([1]; Fasted Conditions, 2.0 hours after dosing): 70.600 ng/mL
- Plasma Concentration ([1]; Fasted Conditions, 3.0 hours after dosing): 58.833 ng/mL
- Plasma Concentration ([1]; Fasted Conditions, 4.0 hours after dosing): 45.042 ng/mL
- Plasma Concentration ([1]; Fasted Conditions, 6.0 hours after dosing): 31.773 ng/mL
- Plasma Concentration ([1]; Fasted Conditions, 8.0 hours after dosing): 18.708 ng/mL
- Plasma Concentration ([1]; Fasted Conditions, 28.0 hours after dosing): 0 ng/mL
- Plasma Concentration ([1]; Fasted Conditions, 48.0 hours after dosing): 0 ng/mL
- Plasma Concentration ([1]; Fasted Conditions, 72.0 hours after dosing): 0 ng/mL
- Plasma Concentration ([1]; Fasted Conditions, −0.5 hours after dosing): 0 ng/mL
- Plasma Concentration ([1]; High Fat Breakfast, 0.5 hours after dosing): 2.300 ng/mL
- Plasma Concentration ([1]; High Fat Breakfast, 1.0 hours after dosing): 17.392 ng/mL
- Plasma Concentration ([1]; High Fat Breakfast, 2.0 hours after dosing): 36.964 ng/mL
- Plasma Concentration ([1]; High Fat Breakfast, 3.0 hours after dosing): 56.742 ng/mL
- Plasma Concentration ([1]; High Fat Breakfast, 4.0 hours after dosing): 66.817 ng/mL
- Plasma Concentration ([1]; High Fat Breakfast, 6.0 hours after dosing): 51.675 ng/mL
- Plasma Concentration ([1]; High Fat Breakfast, 8.0 hours after dosing): 30.950 ng/mL
- Plasma Concentration ([1]; High Fat Breakfast, 28.0 hours after dosing): 0 ng/mL
- Plasma Concentration ([1]; High Fat Breakfast, 48.0 hours after dosing): 0 ng/mL
- Plasma Concentration ([1]; High Fat Breakfast, 72.0 hours after dosing): 0 ng/mL
- Plasma Concentration ([1]; High Fat Breakfast, −0.5 hours after dosing): 0 ng/mL
- Plasma Concentration ([2]; 0.5 hours after dosing): 63.2 ng/mL
- Plasma Concentration ([2]; 1.0 hours after dosing): 78.0 ng/mL
- Plasma Concentration ([2]; 1.5 hours after dosing): 70.8 ng/mL
- Plasma Concentration ([2]; 2.0 hours after dosing): 59.9 ng/mL
- Plasma Concentration ([2]; 2.5 hours after dosing): 51.0 ng/mL
- Plasma Concentration ([2]; 3.0 hours after dosing): 46.9 ng/mL
- Plasma Concentration ([2]; 4.0 hours after dosing): 41.9 ng/mL
- Plasma Concentration ([2]; 6.0 hours after dosing): 23.0 ng/mL
- Plasma Concentration ([2]; 8.0 hours after dosing): 13.0 ng/mL
- Plasma Concentration ([2]; 48.0 hours after dosing): 0 ng/mL
- Plasma Concentration ([2]; 72.0 hours after dosing): 0 ng/mL
- Plasma Concentration ([2]; −0.5 hours after dosing): 0 ng/mL
- AUC(0-96) [2, 4]: 352.2 (ng/mL) hr
- Mean Residence Time [2, 4]: 3.4 h
- Oral Clearance [2, 4]: 306.3 L/h
- T1/2 [2, 4]: 3.1 h
- Tmax [2, 4]: 1.1 h
- dose excreted in feces as the named form [3]: 2.46%
- dose excreted in urine as the named form [3]: 4.98%
SMILES: COC(=O)C1CC2=CC(=O)CCC2(C)C23OC2CC2(C)C(CCC2(O)CCC(=O)O)C13 (stereo not drawn) [Open Ring Lactone]
